Experimental data published in patent US9596857B2, “Insecticidal and miticidal mixtures of bifenthrin and cyano-pyrethroids” (FMC Corporation, priority 2005, dated 2017).

How the values were obtained:
Format in all cases: in vivo
[1] = test system: Colorado potato beetle (Leptinotarsa decemlineata [Say]); test: Foliar leaf-dip test against adult Colorado potato beetle on tomato plants; settings: technical, 72 h
Experimental: (§1) Candidate insecticide compositions were evaluated for activity in foliar evaluations against tobacco budworm (Heliothis virescens [Fabricius]), Colorado potato beetle (Leptinotarsa decemlineata [Say]), corn earworm (Helicoverpa zea [Boddie]), cotton aphid (Aphis gossypii [Glover]) and twospotted spider mite (Tetranychus urticae [Koch]). Each test included controls in which the formulation or test solution minus the active ingredients were applied.
In tests against adult Colorado potato beetle, the leaves of 6-8 inch tall tomato plants (Lycopersicon lycoper) were dipped into the test solutions of the test formulations to provide application rates as high as 1000 ppm of the active ingredients. The test formulations were dissolved in distilled water containing 10% acetone and 0.25% of a non-ionic detergent [an octylphenolpoly(ethyleneglycolether)x, available from Roche Applied Science as Triton X-100] to the proper concentrations. The treated plants were transferred to a hood where they were kept until the leaves had dried. For tests in which the active ingredients were not formulated, i.e. the technical active ingredient was used; a stock solution of the test compound was made. For example, a 100 ppm stock solution may be made by dissolving 4 milligrams of the test compound in 4 mL of acetone and adding the solution to 36 mL of an aqueous Triton X-100 solution (one drop of Triton X-100 dissolved in 100 mL of distilled water). Further dilutions can be made by adding distilled water containing 10% acetone and 0.25% of Triton X-100.
The treated tomato plants were removed from their pots by cutting the stems just above the soil line. Each excised plant was placed into an individual 8-ounce paper cup. Ten adult Colorado potato beetles were placed into each paper cup, taking care not to cause injury. An opaque plastic lid was placed on each cup, for a 72 hour exposure period and held at 25° C., 50% relative humidity with a photo-period of 12 hours light and 12 hours dark. At the end of the 72 hour exposure period, the cups were opened, and the numbers of dead and live insects were counted. Using the insect counts, the activity of the test chemical was expressed in percent control. Percent control is derived from the total number of dead insects (TD) compared to the total number of insects (TI) in the test: […]

[2] = test system: corn earworm (Helicoverpa zea [Boddie]); test: Cotton leaf-disc dip test against corn earworm; settings: technical, 96 h
Experimental: as §1
In tests against corn earworm, one inch diameter leaf discs cut from cotton plant leaves (Gossypium hirsutum) were dipped into the test solutions of the test formulations to provide application rates as high as 1000 ppm of the active ingredients. The test formulations were dissolved in distilled water containing 10% acetone and 0.25% of a non-ionic detergent [an octylphenolpoly(ethyleneglycolether)x, available from Roche Applied Science as Triton X-100] to the proper concentrations. Cotton wicks, 0.5 inch diameter by 2 inches long, were soaked with distilled water and placed into the wells of a 32 well rearing tray (available as Rearing Tray Bio-Fit 32, from C-D International, Pittman, N.J.), one wick per well. Treated leaf discs were placed on top of the cotton wicks, one leaf disc per wick, and the rearing tray was transferred to a hood where they were kept until the leaf discs had dried. Each disc was infested with 1 late second to early third instar corn earworm, replicated sixteen times per rate of application, and a lid was placed on the rearing tray. The rearing trays were held in a growth chamber for 96 hours at 25° C., 50% relative humidity and a photoperiod of 12 hours light/12 hours dark. For tests in which the active ingredients were not formulated, i.e. the technical active ingredient was used; a stock solution of the test compound was made. For example, a 100 ppm stock solution may be made by dissolving 4 milligrams of the test compound in 4 mL of acetone and adding the solution to 36 mL of an aqueous Triton X-100 solution (one drop of Triton X-100 dissolved in 100 mL of distilled water). Further dilutions can be made by adding distilled water containing 10% acetone and 0.25% of Triton X-100.
(§2) At the end of the 96 hour exposure period, the rearing tray was opened, and the numbers of dead and live insects were counted. […] Using the insect counts, the activity of the test chemical was expressed in percent control. Percent control is derived from the total number of dead insects (TD) compared to the total number of insects (TI) in the test: […]

[3] = test system: cotton aphid (Aphis gossypii [Glover]); test: Foliar leaf-dip test against cotton aphid on tomato plants; settings: technical, 72 h
Experimental: as §1
In tests against cotton aphid, the leaves of 6 to 8 inch tall tomato plants (Lycopersicon lycoper) were infested with about 50 cotton aphids by placing leaf cuttings from a cotton aphid colony host tomato plant. After about 12 hours the newly infested tomato leaves were dipped into the test solutions of the test formulations to provide application rates as high as 1000 ppm of the active ingredients. The test formulations were dissolved in, and diluted as necessary, with distilled water containing 10% acetone and 0.25% of a non-ionic detergent [an octylphenolpoly(ethyleneglycolether)x, available from Roche Applied Science as Triton X-1001 to the proper concentrations. After treatment, a square of parafilm was placed around the stem of each test plant, covering the soil of each pot in order to catch dead aphids that fall from the leaves. The treated plants were transferred to a hood where they were kept until the leaves had dried. Once dry, the potted plants were placed into a tray containing at least one inch of water. The plants were spaced far enough apart to prevent the aphids from moving between plants. The trays were held in a growth chamber for 72 hours at 25° C., 50% relative humidity and a photoperiod of 14 hours light/10 hours dark. For tests in which the active ingredients were not formulated, i.e. the technical active ingredient was used; a stock solution of the test compound was made. For example, a 100 ppm stock solution may be made by dissolving 4 milligrams of the test compound in 4 mL of acetone and adding the solution to 36 mL of an aqueous Triton X-100 solution (one drop of Triton X-100 dissolved in 100 mL of distilled water). Further dilutions can be made by adding distilled water containing 10% acetone and 0.25% of Triton X-100.
At the end of the 72 hour exposure period the numbers of dead and live insects were counted. Insects were classified as “dead” if they were off-color or brown and desiccated. Using the insect counts, the activity of the test chemical was expressed in percent control. Percent control is derived from the total number of dead insects (TD) compared to the total number of insects (TI) in the test: […]

[4] = test system: twospotted spider mite (Tetranychus urticae [Koch]); test: Foliar leaf-dip test against twospotted spider mite on pinto bean plants; settings: technical, 96 h
Experimental: as §1
In tests against twospotted spider mites, the leaves of potted 3 to 4 inch tall pinto bean plants (Phaseolus vulgaris) were infested with about 50 to 75 adult twospotted spider mites by placing leaf cuttings from a twospotted spider mite colony host pinto bean plant on the upper surface of the test plant leaves. After about 1 hour the newly infested pinto bean leaves were dipped into the test solutions of the test formulations to provide application rates as high as 1000 ppm of the active ingredients. The test formulations were dissolved in, and diluted as necessary, with distilled water containing 10% acetone and 0.25% of a non-ionic detergent [an octylphenolpoly(ethyleneglycolether)x, available from Roche Applied Science as Triton X-100] to the proper concentrations. The treated plants were transferred to a hood where they were kept until the leaves had dried. Once dry, the potted plants were placed into a tray containing at least one inch of water. The plants were spaced far enough apart to prevent the mites from moving between plants. The trays were held in a growth chamber for 96 hours at 25° C., 50% relative humidity and a photoperiod of 14 hours light/10 hours dark. For tests in which the active ingredients were not formulated, i.e. the technical active ingredient was used; a stock solution of the test compound was made. For example, a 100 ppm stock solution may be made by dissolving 4 milligrams of the test compound in 4 mL of acetone and adding the solution to 36 mL of an aqueous Triton X-100 solution (one drop of Triton X-100 dissolved in 100 mL of distilled water). Further dilutions can be made by adding distilled water containing 10% acetone and 0.25% of Triton X-100.
as §2, with “period” for “period, the rearing tray was opened, and”

[5] = cyano-pyrethroid 0.3 ppm alone (bifenthrin 0 ppm)
[6] = cyano-pyrethroid 1.0 ppm alone (bifenthrin 0 ppm)
[7] = cyano-pyrethroid 3.0 ppm alone (bifenthrin 0 ppm)
[8] = cyano-pyrethroid 10.0 ppm alone (bifenthrin 0 ppm)
[9] = cyano-pyrethroid 0.3 ppm alone (bifenthrin 0.0 ppm)
[10] = cyano-pyrethroid 1.0 ppm alone (bifenthrin 0.0 ppm)
[11] = cyano-pyrethroid 3.0 ppm alone (bifenthrin 0.0 ppm)
[12] = cyano-pyrethroid 10.0 ppm alone (bifenthrin 0.0 ppm)
[13] = cyano-pyrethroid 30.0 ppm alone (bifenthrin 0 ppm)
[14] = cyano-pyrethroid 100.0 ppm alone (bifenthrin 0 ppm)
[15] = cyano-pyrethroid 200.0 ppm alone (bifenthrin 0 ppm)

Structure (SMILES)	% Mortality Adult Colorado Potato Beetle [1, 5] [%]	% Mortality Adult Colorado Potato Beetle [1, 6] [%]	% Mortality Adult Colorado Potato Beetle [1, 7] [%]	% Mortality Adult Colorado Potato Beetle [1, 8] [%]	% Mortality Corn Earworm [2, 9] [%]	% Mortality Corn Earworm [2, 10] [%]	% Mortality Corn Earworm [2, 11] [%]	% Mortality Corn Earworm [2, 12] [%]	% Mortality Cotton Aphid [3, 13] [%]	% Mortality Cotton Aphid [3, 14] [%]	% Mortality Cotton Aphid [3, 15] [%]	% Mortality Twospotted Spider Mite [4, 8] [%]	% Mortality Twospotted Spider Mite [4, 13] [%]	% Mortality Twospotted Spider Mite [4, 14] [%]	% Mortality Twospotted Spider Mite [4, 15] [%]
CC1(C)[C@H](C(=O)O[C@H](C#N)c2cccc(Oc3ccccc3)c2)[C@@H]1C=C(Br)Br [delta-methrin, (S)-α-cyano-3-phenoxybenzyl (1R)-cis-3-(2,2-dibromovinyl)-2,2-dimethylcyclopropanecarboxylate]	0	30	90	100	6	50	94	100	7	8	19	3	83	26	16
CC(C)[C@H](C(=O)O[C@H](C#N)c1cccc(Oc2ccccc2)c1)c1ccc(Cl)cc1 [esfenvalerate, (S)-α-cyano-3-phenoxybenzyl (S)-2-(4-chlorophenyl)-3-methylbutyrate]	0	0	5	95	0	0	13	50	38	14	15	21	25	71	91
